Test results from publication PMC11966747, “Next Generation Risk Assessment of Acute Neurotoxicity from Organophosphate Exposures Using the In Vitro–In Silico Derived Dietary Comparator Ratio” (Environmental Science & Technology, 2025).
Read-outs that look alike come from different tables or passages of the source.

What was measured:
erythrocyte AChE [1] = target: T1, erythrocyte AChE (Homo sapiens, UniProt P22303); assay: Exposure Activity Ratio (EAR) and Dietary Comparator Ratio (DCR) calculation; design: from tissue; host or cells: human whole peripheral blood (erythrocytes), K2EDTA anticoagulant; conditions: human
Description: The DCR value for an exposure scenario was calculated as the ratio of EARtest and EARcomparator (eq 1). The EARtest is scenario-specific and was defined with the IC50 of the tested organophosphate oxon for in vitro erythrocyte AChE inhibition and the PBK model-simulated CBmaxoxon at the defined exposure level (eq 2).
The DCR-based predictions were evaluated by comparing the obtained DCR results with actual knowledge of the adverse health effects reported for the respective exposure scenarios. Adverse effects cannot be ruled out for human exposure scenarios with a DCR result greater than 1, while exposure scenarios with a DCR result less than or equal to 1 are considered to raise no safety concern.[18]−[20] Once validated as an adequate predicting tool, the DCR approach was applied for evaluating the safety of exposure scenarios, for which no information on the resulting toxic outcomes was reported at the defined dose levels for humans.

[2] = QSAR-based prediction; ref Punt et al. 2022; Moerenhout et al. 2024; cited from earlier work
erythrocyte AChE [3] = target: T1, erythrocyte AChE; conditions: cited from earlier work

T1 sequence (P22303 32-617 isoform P22303-2 limits assumed): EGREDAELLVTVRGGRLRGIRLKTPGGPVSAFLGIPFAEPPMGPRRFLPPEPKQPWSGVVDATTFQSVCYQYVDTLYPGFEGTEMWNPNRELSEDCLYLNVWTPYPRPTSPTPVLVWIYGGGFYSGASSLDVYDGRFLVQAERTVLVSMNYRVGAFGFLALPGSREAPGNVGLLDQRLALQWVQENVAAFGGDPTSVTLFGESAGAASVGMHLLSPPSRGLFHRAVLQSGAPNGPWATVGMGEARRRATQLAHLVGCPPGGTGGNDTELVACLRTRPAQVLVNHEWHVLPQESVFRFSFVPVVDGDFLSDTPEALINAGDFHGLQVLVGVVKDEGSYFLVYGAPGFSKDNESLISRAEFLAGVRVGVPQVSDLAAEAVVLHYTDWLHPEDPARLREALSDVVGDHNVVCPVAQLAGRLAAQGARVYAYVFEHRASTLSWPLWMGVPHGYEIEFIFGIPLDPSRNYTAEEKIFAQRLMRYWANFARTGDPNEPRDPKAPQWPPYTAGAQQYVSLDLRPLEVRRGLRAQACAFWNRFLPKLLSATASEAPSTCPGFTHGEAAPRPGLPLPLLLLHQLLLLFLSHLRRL

## COP(=S)(OC)Oc1ccc([N+](=O)[O-])c(C)c1 [fenitrothion]
Erythrocyte AChE [1]; single oral 0.042 mg/kg BW
  calculated DCR value: 0.17
  calculated EARtest value: 6.8 × 10^–3
Erythrocyte AChE [1]; single oral 0.06 mg/kg BW
  calculated DCR value: 0.25
  calculated EARtest value: 9.7 × 10^–3
Erythrocyte AChE [1]; single oral 0.083 mg/kg BW
  calculated DCR value: 0.34
  calculated EARtest value: 0.013
Erythrocyte AChE [1]; single oral 0.09 mg/kg BW
  calculated DCR value: 0.37
  calculated EARtest value: 0.015
Erythrocyte AChE [1]; single oral 0.17 mg/kg BW
  calculated DCR value: 0.70
  calculated EARtest value: 0.028
Erythrocyte AChE [1]; single oral 0.18 mg/kg BW
  calculated DCR value: 0.74
  calculated EARtest value: 0.029
Erythrocyte AChE [1]; single oral 0.25 mg/kg BW
  calculated DCR value: 1.0
  calculated EARtest value: 0.041
Erythrocyte AChE [1]; single oral 0.33 mg/kg BW
  calculated DCR value: 1.4
  calculated EARtest value: 0.054
Erythrocyte AChE [1]; single oral 0.36 mg/kg BW
  calculated DCR value: 1.5
  calculated EARtest value: 0.059
Erythrocyte AChE [1]; single oral 36 mg/kg BW
  calculated DCR value: 174
  calculated EARtest value: 6.89
Erythrocyte AChE [1]; single oral 71 mg/kg BW
  calculated DCR value: 346
  calculated EARtest value: 13.66
Erythrocyte AChE [1]; single oral 143 mg/kg BW
  calculated DCR value: 610
  calculated EARtest value: 24.10
Erythrocyte AChE [1]; single oral 214 mg/kg BW
  calculated DCR value: 811
  calculated EARtest value: 32.03
Erythrocyte AChE [1]; single oral 357 mg/kg BW
  calculated DCR value: 1189
  calculated EARtest value: 46.93
Erythrocyte AChE [1]; single oral 429 mg/kg BW
  calculated DCR value: 1364
  calculated EARtest value: 53.86
Erythrocyte AChE [1]; single oral 500 mg/kg BW
  calculated DCR value: 1526
  calculated EARtest value: 60.24
Erythrocyte AChE [1]; single oral 536 mg/kg BW
  calculated DCR value: 1604
  calculated EARtest value: 63.31
Erythrocyte AChE [1]; single oral 571 mg/kg BW
  calculated DCR value: 1677
  calculated EARtest value: 66.18
Erythrocyte AChE [1]; single oral 1714 mg/kg BW
  calculated DCR value: 3037
  calculated EARtest value: 119.90
Erythrocyte AChE [1]; single oral 1786 mg/kg BW
  calculated DCR value: 3078
  calculated EARtest value: 121.49
[2]
  Oral absorption rate constant: 0.58 h⁻¹
Erythrocyte AChE [3]; 0.042 mg/kg BW single oral, 3 volunteers, ref Nosáľ and Hladká. 1968
  Reported erythrocyte AChE activity/inhibition: No significant
Erythrocyte AChE [3]; 0.06 mg/kg BW single oral, 3 male volunteers, ref Meaklim et al. 2003
  Reported concomitant effects (signs and symptoms): No significant symptoms
Erythrocyte AChE [3]; 0.083 mg/kg BW single oral, 9 volunteers, ref Nosáľ and Hladká. 1968
  Reported erythrocyte AChE activity/inhibition: No significant
Erythrocyte AChE [3]; 0.09 mg/kg BW, first dose of repeated exposure study, 8 male and 4 female volunteers, ref Meaklim et al. 2003
  Reported erythrocyte AChE activity/inhibition: No significant erythrocyte AChE
Erythrocyte AChE [3]; 0.17 mg/kg BW single oral, 5 volunteers, ref Nosáľ and Hladká. 1968
  Reported erythrocyte AChE activity/inhibition: No significant erythrocyte AChE
Erythrocyte AChE [3]; 0.18 mg/kg BW single oral, 3 male volunteers, ref Meaklim et al. 2003
  Reported concomitant effects (signs and symptoms): No significant symptoms
Erythrocyte AChE [3]; 0.18 mg/kg BW, first dose of repeated exposure study, 8 male and 4 female volunteers, ref Meaklim et al. 2003
  Reported erythrocyte AChE activity/inhibition: No significant erythrocyte AChE
Erythrocyte AChE [3]; 0.25 mg/kg BW single oral, 2 volunteers, ref Nosáľ and Hladká. 1968
  Reported erythrocyte AChE activity/inhibition: No significant erythrocyte AChE
Erythrocyte AChE [3]; 0.33 mg/kg BW single oral, 5 volunteers, ref Nosáľ and Hladká. 1968
  Reported erythrocyte AChE activity/inhibition: No significant erythrocyte AChE
Erythrocyte AChE [3]; 0.36 mg/kg BW single oral, 3 male volunteers, ref Meaklim et al. 2003
  Reported concomitant effects (signs and symptoms): No symptoms or adverse effects
Erythrocyte AChE [3]; 36 mg/kg BW (2.5 g) acute oral, person, ref Kojima et al. 1989
  Reported concomitant effects (signs and symptoms): Toxic symptoms occurred
Erythrocyte AChE [3]; 71 mg/kg BW (5 g) acute oral, person, ref Yoshida and Kuroki. 2010 (original data of Koyama et al. 2006)
  Reported concomitant effects (signs and symptoms): Toxic symptoms occurred
Erythrocyte AChE [3]; 143 mg/kg BW (10 g) acute oral, person, ref Yoshida and Kuroki. 2010 (original data of Koyama et al. 2006)
  Reported concomitant effects (signs and symptoms): Toxic symptoms occurred
Erythrocyte AChE [3]; 214 mg/kg BW (15 g) acute oral, person five, ref Yoshida and Kuroki. 2010 (original data of Koyama et al. 2006)
  Reported concomitant effects (signs and symptoms): Toxic symptoms occurred
Erythrocyte AChE [3]; 214 mg/kg BW (15 g) acute oral, person three, ref Yoshida and Kuroki. 2010 (original data of Koyama et al. 2006)
  Reported concomitant effects (signs and symptoms): Toxic symptoms occurred
Erythrocyte AChE [3]; 286 mg/kg BW (20 g) acute oral, person, ref Sakamoto et al. 1984
  Reported concomitant effects (signs and symptoms): Toxic symptoms occurred
